Target: hCRTH2 receptor (Homo sapiens (Human), UniProt Q9Y5Y4)
Assay: hCRTH2 receptor membranes radioligand (3H-PGD2) displacement assay
Assay type: binding
Details: 3H-PGD2 radioligand displacement, HEK293-hCRTH2 membranes
Summary of the method: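 Compound was first mixed with buffer, then 3H-PGD2 was added at 2.5 nM, and the reaction was started with hCRTH2 membranes from HEK293 cells at 20 μg/well. After 90 min at room temperature, mixtures were filtered and washed with ice-cold buffer, and retained radioactivity was counted.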

hCRTH2 receptor, sequence (Q9Y5Y4 whole entry): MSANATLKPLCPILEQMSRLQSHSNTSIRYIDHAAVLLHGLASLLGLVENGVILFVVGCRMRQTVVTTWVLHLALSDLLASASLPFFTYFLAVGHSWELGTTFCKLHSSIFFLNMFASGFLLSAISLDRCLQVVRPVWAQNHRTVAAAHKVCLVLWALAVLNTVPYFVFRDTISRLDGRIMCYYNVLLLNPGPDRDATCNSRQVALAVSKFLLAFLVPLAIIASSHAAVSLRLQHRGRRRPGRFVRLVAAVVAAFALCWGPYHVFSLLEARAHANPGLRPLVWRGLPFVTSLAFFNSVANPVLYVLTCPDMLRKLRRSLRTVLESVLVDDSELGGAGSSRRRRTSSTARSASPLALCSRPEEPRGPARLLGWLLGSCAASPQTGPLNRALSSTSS

SMILES	IC50 [nM]
CCOc1cc(CC(=O)O)ccc1-c1ccc(F)c2c1CN(C(=O)NCc1ccc(F)cc1)CC2 [Example 442, {3-Ethoxy-4-[5-fluoro-2-(4-fluoro-benzylcarbamoyl)-1,2,3,4-tetrahydro-isoquinolin-8-yl]-phenyl}-acetic acid]	5.3
O=C(O)COc1ccc(Cl)c(-c2cccc3c2CN(C(=O)OCc2ccccc2)CC3)c1 [Example 181, 8-(5-Carboxymethoxy-2-chloro-phenyl)-3,4-dihydro-1H-isoquinoline-2-carboxylic acid benzyl ester]	123
COc1ccc(CC(=O)O)cc1-c1ccc(F)c2c1CN(C(=O)CCc1cccnc1)CC2 [Example 51, {3-[5-Fluoro-2-(3-pyridin-3-yl-propionyl)-1,2,3,4-tetrahydro-isoquinolin-8-yl]-4-methoxy-phenyl}-acetic acid]	57.1
COc1ccc(CC(=O)O)cc1-c1c(F)cc(F)c2c1CN(C(=O)[C@@H]1C[C@H]1c1ccccc1)CC2 [Example 38, {3-[5,7-Difluoro-2-((1R,2R)-2-phenyl-cyclopropanecarbonyl)-1,2,3,4-tetrahydro-isoquinolin-8-yl]-4-methoxy-phenyl}-acetic acid]	11.2
CCOc1ccc(CC(=O)O)cc1-c1ccc(F)c2c1CN(C(=O)CCc1cccc(F)c1)CC2 [Example 311, (4-Ethoxy-3-{5-fluoro-2-[3-(3-fluoro-phenyl)-propionyl]-1,2,3,4-tetrahydro-isoquinolin-8-yl}-phenyl)-acetic acid]	3.9
COc1ccc(CC(=O)O)cc1-c1ccc(F)c2c1CN(C(=O)CC1c3ccccc3CCN1C)CC2 (racemic) [Example 259]	587
COc1ccc(CC(=O)O)cc1-c1ccc(F)c2c1CN(C(=O)CCN1CCCc3ccccc31)CC2 [Example 53, {3-[2-(3-3,4-Dihydro-2H-quinolin-1-yl-propionyl)-5-fluoro-1,2,3,4-tetrahydro-isoquinolin-8-yl]-4-methoxy-phenyl}-acetic acid]	4.49
COc1ccc(CC(=O)O)cc1-c1ccc(F)c2c1CN(C(=O)OCc1ccccc1)C2 [Example 18, 4-(5-Carboxymethyl-2-methoxy-phenyl)-7-fluoro-1,3-dihydro-isoindole-2-carboxylic acid benzyl ester]	165
COc1ccc(CC(=O)O)cc1-c1ccc(F)c2c1CN(C(=O)C1CC(=O)c3ccccc31)CC2 (racemic) [Example 122, (±)-{3-[5-Fluoro-2-(3-oxo-indane-1-carbonyl)-1,2,3,4-tetrahydro-isoquinolin-8-yl]-4-methoxy-phenyl}-acetic acid]	862
COc1ccc(CC(=O)O)cc1-c1ccc(F)c2c1CN(C(=O)NCc1ccccc1F)CC2 [Example 130, {3-[5-Fluoro-2-(2-fluoro-benzylcarbamoyl)-1,2,3,4-tetrahydro-isoquinolin-8-yl]-4-methoxy-phenyl}-acetic acid]	17.7
CC(C)Oc1ccc(OCC(=O)O)cc1-c1ccc(F)c2c1CN(C(=O)[C@@H]1C[C@H]1c1ccccc1)CC2 [Example 161, {3-[5-Fluoro-2-((1R,2R)-2-phenyl-cyclopropanecarbonyl)-1,2,3,4-tetrahydro-isoquinolin-8-yl]-4-isopropoxy-phenoxy}-acetic acid]	1.38
O=C(O)Cc1ccc(OCC(F)(F)F)c(-c2ccc(F)c3c2CN(C(=O)CC2OCCc4ccccc42)CC3)c1 (racemic) [Example 306]	7.4
COc1ccc(CC(=O)O)cc1-c1ccc(Cl)c2c1CN(C(=O)CCN1CCc3ccccc31)CC2 [Example 78, {3-[5-Chloro-2-(3-2,3-dihydro-indol-1-yl-propionyl)-1,2,3,4-tetrahydro-isoquinolin-8-yl]-4-methoxy-phenyl}-acetic acid]	61.5
COc1ccc(CC(=O)O)cc1-c1ccc(F)c2c1CN(C(=O)CCn1ncc3cc(F)ccc31)CC2 [Example 126, (3-{5-Fluoro-2-[3-(5-fluoro-indazol-1-yl)-propionyl]-1,2,3,4-tetrahydro-isoquinolin-8-yl}-4-methoxy-phenyl)-acetic acid]	9.54
O=C(O)Cc1ccc(OCCF)c(-c2ccc(F)c3c2CN(C(=O)[C@@H]2C[C@H]2c2ccccc2)CC3)c1 [Example 427, {4-(2-Fluoro-ethoxy)-3-[5-fluoro-2-((1R,2R)-2-phenyl-cyclopropanecarbonyl)-1,2,3,4-tetrahydro-isoquinolin-8-yl]-phenyl}-acetic acid]	3.1
CCCNC(=O)N1CCc2c(F)ccc(-c3cc(CC(=O)O)ccc3OCC)c2C1 [Example 439, [4-Ethoxy-3-(5-fluoro-2-propylcarbamoyl-1,2,3,4-tetrahydro-isoquinolin-8-yl)-phenyl]-acetic acid]	126
COc1ccc(CC(=O)O)cc1-c1ccc(F)c2c1CN(C(=O)Cc1n[nH]c3ccccc13)CC2 [Example 124, {3-[5-Fluoro-2-(2-1H-indazol-3-yl-acetyl)-1,2,3,4-tetrahydro-isoquinolin-8-yl]-4-methoxy-phenyl}-acetic acid]	10.5
O=C(O)Cc1ccc(Cl)c(-c2ccc(F)c3c2CN(C(=O)OCc2ccccc2)CC3)c1 [Example 9, 8-(5-Carboxymethyl-2-chloro-phenyl)-5-fluoro-3,4-dihydro-1H-isoquinoline-2-carboxylic acid benzyl ester]	12.8
COc1ccc(C2(C(=O)O)CC2)cc1-c1ccc(F)c2c1CN(C(=O)[C@@H]1C[C@H]1c1ccccc1)CC2 [Example 429, 1-{3-[5-Fluoro-2-((1R,2R)-2-phenyl-cyclopropanecarbonyl)-1,2,3,4-tetrahydro-isoquinolin-8-yl]-4-methoxy-phenyl}-cyclopropanecarboxylic acid]	50.7
COc1ccc(C(C)C(=O)O)cc1-c1ccc(F)c2c1CN(C(=O)OCc1ccccc1)CC2 (racemic) [Example 171, (±)-8-[5-(1-Carboxy-ethyl)-2-methoxy-phenyl]-5-fluoro-3,4-dihydro-1H-isoquinoline-2-carboxylic acid benzyl ester]	21.2
CCOc1ccc(CC(=O)O)cc1-c1ccc(F)c2c1CN(C(=O)CCc1ncccc1OC)CC2 [Example 309, (4-Ethoxy-3-{5-fluoro-2-[3-(3-methoxy-pyridin-2-yl)-propionyl]-1,2,3,4-tetrahydro-isoquinolin-8-yl}-phenyl)-acetic acid]	32.3
CCOc1cc(CC(=O)O)ccc1-c1ccc(F)c2c1CN(C(=O)OCc1cccc(C)n1)CC2 [Example 390, 8-(4-Carboxymethyl-2-ethoxy-phenyl)-5-fluoro-3,4-dihydro-1H-isoquinoline-2-carboxylic acid 6-methyl-pyridin-2-ylmethyl ester]	0.8
CC(CC(=O)N1CCc2c(F)ccc(-c3ccc(CC(=O)O)cc3OCC(F)(F)F)c2C1)c1ccccn1 (racemic) [Example 288]	10
CC(C)Oc1ccc(CC(=O)O)cc1-c1ccc(F)c2c1CN(C(=O)[C@@H]1C[C@H]1c1ccccc1)CC2 [Example 27, {3-[5-Fluoro-2-((1R,2R)-2-phenyl-cyclopropanecarbonyl)-1,2,3,4-tetrahydro-isoquinolin-8-yl]-4-isopropoxy-phenyl}-acetic acid]	12.9
O=C(O)COc1ccc(-c2ccc(F)c3c2CN(C(=O)OCc2ccccc2)CC3)cc1 [Example 172, 8-(4-Carboxymethoxy-phenyl)-5-fluoro-3,4-dihydro-1H-isoquinoline-2-carboxylic acid benzyl ester]	209

Source: patent US9255090B2, “Heterocyclyl derivatives and their use as prostaglandin D2 receptor modulators” (Actelion Pharmaceuticals Ltd., priority 2012, dated 2016)
